From US20210071183A1, “ZINC ASSOCIATED TREATMENT FOR AND DIAGNOSIS OF CACHEXIA” (THE TRUSTEES OF COLUMBIA UNIVERSITY IN THE CITY OF NEW YORK, priority 2018, published 2021) come the findings set out here.

The test system of data set [1] is myosin heavy chain (MyHC). Kind of data set: Zinc and MG132 treatment of differentiated C2C12 muscle cells (immunoblot of myofibrillar proteins). The format is cell-based, mouse. As for the experimental part: (§1) Zinc and MG132 treatment of muscle cells: 3-day differentiated C2C12 cells were cultured with 50 μM ZnCI2 in differentiation medium for 24 hours. Cells were then used for immunofluorescence staining, gene expression analysis and immunoblot analysis. For MG-132 (benzyloxycarbonylleucyl-leucyl-leucine aldehyde, a proteasome inhibitor) treatment, 3-day differentiated C2C12 cells expressing Zip14 (Adeno-Zip14) were treated with 50 μM ZnCI2 for 24 hours, and then treated with either vehicle (DMSO) or MG132 (50 μM) for 3 hours prior to harvest for immunoblot analysis.
Subcellular fractionation of differentiated C2C12 muscle cells: Fractionation of soluble and myofibrillar components was performed. Differentiated C2C12 muscle cells were collected in cold lysis buffer (20 mM of Tris-HCl pH 7.2, 5 mM of EGTA, 100 mM of KCl, 1% Triton X-100, and 1× protease and phosphatase inhibitor cocktail), and lysed by gentle agitation at 4° C. for 1 h. After centrifugation at 3,000×g for 30 mins at 4° C., the cytosolic fraction (supernatant) was collected and stored in −80° C. The pellet (myofibrils) was washed twice with wash buffer (20 mM of Tris-HCl, pH 7.2, 100 mM of KCl, and 1 mM of DTT). After centrifugation at 3,000×g for 10 mins at 4° C., myofibrillar fraction was extracted in ice-cold extraction buffer (0.6 M of KCl, 1% Triton X-100, 2 mM of EDTA, 1 mM of DTT and 1× protease and phosphatase inhibitor cocktail) with shaking at 4° C. The purified myofibrillar fraction was collected after centrifugation for 3,000×g at 4° C. and stored in −80° C. until further use.

The subject of data set [2] is 4T1 tumor-bearing mice. Kind of data set: Zinc chelator injection in 4T1 tumor-bearing mice. The class given is in vivo, mouse. To be noted: 150 mg/kg body weight daily from 7 days post-tumor cell injection, 4 weeks. The procedure: The effects of zinc chelator injection were analyzed using healthy or C26m2 tumor bearing mice. Excess zinc supplementation exacerbates muscle wasting, while zinc chelation reduces muscle wasting in tumor-bearing mice. […] (A-B) Healthy or C26m2 tumor bearing mice of the indicated genotypes (Zip14 WT or KO) were either treated with regular or zinc-enriched water (25 mM) from the day of tumor cell injection and muscles were collected after […]. Body weight analysis (A) and relative MuRF1/MAFBx mRNA expression levels indicative of muscle wasting (B) are shown. C. Mice were injected with 4T1 tumor cells and were divided into 3 groups, one was provided with regular diet with 86 ppm zinc, second group with 1000 ppm zinc-supplemented diet (high zinc diet) and third group with regular diet with 86 ppm zinc but with zinc chelator injected daily with Sodium diethyldithiocarbamate trihydrate (DEDTC) at 150 mg/kg body weight injected 7 days post-tumor cell injection. Mice were sacrificed after 4 weeks post-tumor cell injection. In all experiments, n=3-8 per group. ns, not significant. *p≤0.05, **p≤0.01, ***p≤0.001 and ****p≤0.0001.

For data set [3], the system named is C2C12 cells. Put plainly: Cell viability assay (MTS, cleaved caspase-3). To be noted: Zip14-expressing cells; 50 μM ZnCl2 24 h. The format is cell-based. As for the experimental part:
Cell viability assay: Viability of C2C12 cells was determined by MTS assay (a cell proliferation assay based on a colorimetric method for quantification of viable cells in proliferation and cytotoxicity assay) using CellTiter 96® Aqueous One Solution Cell Proliferation Assay kit (purchased from Promega) containing tetrazolium compound. C2C12 cells infected with Adeno-GFP control or Adeno-Zip14 were plated in growth media and differentiated. Cells were treated with 50 μM of ZnCl2 for 24 h. Cell viability was measured by adding 100 μl of growth medium without phenol red to each well after aspirating media from the wells. 20 μl of CellTiter 96 AGueous One Solution Reagent was added to each well. After 1 hour of incubation at 37° C. in CO2 incubator, the amount of soluble formazan was determined by absorbance at 450 nm. Undifferentiated and differentiated C2C12 cells were collected for immunoblot analysis probing for cleaved-caspase-3 expression to assess cell-death. C2C12 cells treated with the indicated doses of doxorubicin (doxo) (purchased from Sigma) served as positive control for both types of viability assays.

For data set [4], the system named is Zip14-expressing myoblasts. Put plainly: Muscle differentiation assays with zinc. The format is cell-based, mouse. The procedure:
Adenoviral infection: C2C12 cells or mouse primary myoblasts were cultured overnight. C2C12 cells were infected with adenovirus expressing either GFP (green fluorescent protein) control (Adeno-GFP) or mouse Zip14 (Adeno-Zip14, purchased from Vector Biolabs). Primary myoblasts were infected with adenovirus expressing either GFP control (Adeno-GFP) or mouse Zip14 (Adeno-Zip14).
Muscle differentiation assays: Differentiation was initiated after adenoviral infection by switching the growth medium to differentiation medium (DMEM containing 2% horse serum and 5 μg/ml of insulin for C2C12 cells; DMEM containing 2% horse serum without insulin for primary myoblasts) the day after infection. Differentiation medium was changed at designated time-points.
as §1

The nature of data set [5]: Food and water intake, behavioral coordination, liver and kidney function with zinc-supplemented water. The format is in vivo, mouse. To be noted: C26m2 tumor-bearing mice with excess zinc supplementation. As for the experimental part: (§2) Zinc-supplemented water treatment for mice: ZnS04 solution was purchased from Sigma. Zip14 WT and KO mice were given either regular water or zinc-supplemented drinking water (25 mM ZnS04 in their drinking water). Zinc water was started from the day of tumor injection in the tumor-bearing group and in matched uninjected controls, which continued until the animals were euthanized at 15 days. Tumors were not resected because cachectic symptoms started to develop early and were visible between 8-10 days in the tumor-bearing Zip14 WT group of mice on zinc-enriched water.
Behavioral coordination tests in mice: Rotamex-5 (Columbus Instruments) with a rod diameter of 3 cm, was used for testing coordination in mice. In this setup, automatic fall detection is implemented within each lane by a series of photocells placed above the rotating rod. The speed of the rotating rod is programmed for either constant or accelerated modes. […] Latency to fall is detected with 0.1 second temporal resolution. […] For each mouse, an average of 3 runs are recorded, with 5 minutes rest between each run. The speed that the rod is spinning at when the mouse falls is measured in RPMs. The time it takes for the mouse to fall is measured in seconds. […] When the mice fall off the speed of the rod and amount of time the mouse was on the rod are recorded. […]

Data set [6] has as its system C26m2 tumor-bearing Zip14 WT and KO mice. Put plainly: Zinc-supplemented water treatment for mice. The class given is in vivo, mouse. The procedure:
as §2

For data set [7], the system named is Zip14 expression. Kind of data set: Zip14 qRT-PCR in murine C2C12 myoblasts treated with cytokines and signaling pathway inhibitors. To be noted: for Zip14 expression after recombinant cytokine treatment: murine C2C12 myoblasts, TNFα 50 ng/ml, TGFβ 10 ng/ml. The format is cell-based, mouse. As for the experimental part:
(§3) Treatment with cytokines and signaling pathway inhibitors: Murine C2C12 myoblasts and human primary skeletal myoblasts were serum-starved overnight, and then treated with or without inhibitors of the TGFβ/Smad, […] pathways, which are SB431542 (purchased from Thermo Fisher), CC401 (purchased from Thermo Fisher) and BAY 11-7085 (purchased from Enzo), respectively, followed by treatment with recombinant cytokines purchased from R&D Systems (recombinant mouse TNFα and TGFβ1 at 50 ng/ml and 10 ng/ml, respectively, for C2C12, recombinant human TNFα and TGFβ1 at 50 ng/ml and 10 ng/ml, respectively, for human primary skeletal myoblasts). Cells were pretreated with either vehicle (DMSO) control, or 10 μM of the respective pathway inhibitors for 1 hour, and then treated with TGFβ1 for 9 hours or TNFα for 3 hours before harvest. Cells with different treatments were harvested together for subsequent analysis.
A general note: Quantitative PCR measures a nucleic acid by following its amplification.

Data set [8] deals with Zip14 expression. Kind of data set: Zip14 qRT-PCR in human primary skeletal myoblasts treated with cytokines and signaling pathway inhibitors. To be noted: human primary muscle cells; for Zip14 expression after recombinant cytokine treatment: TNFα 50 ng/ml, TGFβ 10 ng/ml. The format is cell-based. The procedure:
as §3

Where [9] appears, read: Zip14-expressing myotubes treated with zinc (50 μM) for 24 hours.
Setting [10] is: Zip14-wild-type tumor-bearing mice (C26m2), 25 mM ZnSO4 drinking water.

Where a SMILES comes first, the peptide text is derived from it. The star is where a group is joined. Cbz = O=C(OCc1ccccc1)*

For `CC(C)C[C@@H](C=O)NC(=O)[C@H](CC(C)C)NC(=O)[C@H](CC(C)C)NC(=O)OCc1ccccc1` [MG132, benzyloxycarbonylleucyl-leucyl-leucine aldehyde, reference compound] (Cbz-Leu-Leu-Leu-aldehyde), the MyHC loss result in data set [1] (Zip14-expressing 3-day differentiated C2C12, 50 μM ZnCl2 24 h, MG132 50 μM 3 hours prior to harvest) is on record as “could be blocked”.
Turning to `CCN(CC)C(=S)[S-].O.O.O.[Na+]` [DEDTC, Sodium diethyldithiocarbamate trihydrate], the muscle wasting entry in data set [2] is recorded as “reduces”.
On to `[Zn]` [zinc], for which the viability result in data set [3] was “no loss”. Besides, the “differentiation of myoblasts (MyHC expression, morphology)” value in data set [4] (Zip14-expressing C2C12 and primary myoblasts, 50 μM ZnCl2) was “selectively blocked”. Moreover, the “MyoD, Mef2c, and Myf5 transcription” value in data set [4] (Zip14-expressing C2C12 myoblasts, 50 μM ZnCl2 24 hours, qRT-PCR) is on record as “transcriptional repression”. In data set [1] (setting [9]), the MyHC protein result is “striking loss”; the “skeletal actin, tropomyosin, troponin, desmin and myosin light chain (MyLC) protein” value is reported as “remained unchanged”. In addition, the “food or water intake, behavior, liver or kidney function” value in data set [5] is “No changes”. In data set [6] (setting [10]), the body weight loss result was “substantial acceleration” and the muscle atrophy entry is reported as “increase”. Also, the growth kinetics result in data set [6] (absence of tumors, Zip14-wild-type and knockout mice, 25 mM ZnSO4 drinking water) is listed as “no detrimental effect”. Moreover, the muscle wasting entry in data set [6] (tumor-bearing mice, zinc-enriched water (25 mM) or 1000 ppm zinc-supplemented diet) was “exacerbates”.
Turning to `CC(C)(C)c1ccc(S(=O)(=O)/C=C/C#N)cc1` [Bay11-7085], the “Zip14 expression (TNFα-induced)” value in data set [7] (murine C2C12 cells, TNFα 50 ng/ml 3 hours, 10 μM inhibitor pretreated 1 hour, qRT-PCR) is recorded as “blocked”; in data set [8] (TNFα 50 ng/ml 3 hours, 10 μM inhibitor pretreated 1 hour, qRT-PCR), “blocked”.
For `NC(=O)c1ccc(-c2nc(-c3ccc4c(c3)OCO4)c(-c3ccccn3)[nH]2)cc1` [SB431542], the “Zip14 expression (TGFβ-induced)” value in data set [7] (murine C2C12 cells, TGFβ 10 ng/ml 9 hours, 10 μM inhibitor pretreated 1 hour, qRT-PCR) is recorded as “blocked”; in data set [8] (TGFβ 10 ng/ml 9 hours, 10 μM inhibitor pretreated 1 hour, qRT-PCR) it was “blocked”.
In the case of TNFα, the “Zip14 expression after recombinant cytokine treatment” value in data set [7] and in data set [8] was “significantly induced” in each case.
In the case of “TGFβ: recombinant mouse or human TGFβ1 cytokine from R&D Systems”, the “Zip14 expression after recombinant cytokine treatment” value in data set [7] and in data set [8] was “significantly induced” each time.
